In brackets after ≈: the same amount, converted by molar mass. Like-named read-outs stand apart in the source and are kept apart here.
How the values were obtained:
[1] = Nitric oxide (NO) scavenging assay; assay type: biochemical
From the text: Nitric oxide (NO) is a free radical causing inflammatory disorders and cancer in the human body when sodium nitroprusside decomposes to produce nitric oxide. The antioxidant activity of various thiophene derivatives has been reported in the literature and it has also been observed that compounds with high antioxidant activity served as antitumor agents. The newly synthesized compounds reacted directly with nitric oxide and inhibited nitrite formation in an excellent way.
The reaction mixtures comprising sample solution (2 µL), phosphate buffer (17 µL) and sodium nitroprusside (20 µL) were incubated at 37 °C for 2 h in well plates. Then Griess reagent (20 µL, 0.3% sulphanilic acid in glacial acetic acid + 0.1% naphthylethylenediamine (NED): equal volumes of both solutions mixed just before use) was added to each well plate and the mixture kept at room temperature for 20 min to develop the color. The absorbance was measured at 528 nm by using an ELISA reader. The results were processed using Gen 5 software. All the reactions were performed in triplicate. Positive control (containing known antioxidant) and control (containing all samples) were run in parallel. Negative control was used to calibrate the instrument. The % age antioxidant activity was determined by using the following formula: % antioxidant activity = [(Absorbance of control − absorbance of sample)/(Absorbance of control)] × 100

[2] = tested on: human red blood cells (erythrocytes); assay type: cell-based
Experimental: Three mL of freshly obtained human blood was placed in heparinized tubes to avoid coagulation, gently mixed and poured into a sterile 15 mL Falcon tube and centrifuged for 5 min at 1,000 ×g. The supernatant was discarded and red blood cells were washed three times with chilled (4 °C) sterile isotonic phosphate buffer saline pH 7.4 (5 mL). Erythrocytes (10^8 cells/mL) were maintained for each assay by dilution with phosphate buffer saline. Erythrocytes were counted on a heamacytometer. Twenty µL of each compound was mixed with red blood cells suspension (180 μL) separately. The samples were incubated at 37 °C for 35 min. The samples were placed on ice for 5 min and then agitated at 1,000 ×g for 5 min. Supernatant (100 µL) were taken from each tube and diluted 10 times with chilled (4 °C) phosphate buffered saline. Triton X-100 (0.1% v/v) was taken as a positive control and PBS was negative control and then subjected to the same process. […] The percentage RBSs lyses for each sample was calculated.

Escherichia coli = assay: Antibacterial activity (disc / inhibition zone) against Escherichia coli; conditions: for zone of inhibition at 25 µg/mL / zone of inhibition at 50 µg/mL: read-out: Inhibition zone, E.coli; for IC50: read-out: IC50 against Escherichia coli
Salmonella typhi = assay: Antibacterial activity (disc / inhibition zone) against Salmonella typhi; conditions: Salmonella enterica; for zone of inhibition at 25 µg/mL / zone of inhibition at 50 µg/mL: read-out: Inhibition zone, S. typhi; for IC50: read-out: IC50 against Salmonella typhi
Bacillus subtilis = assay: Antibacterial activity (disc / inhibition zone) against Bacillus subtilis; conditions: read-out: Inhibition zone, B. subtilis
Shigella dysenteriae = assay: Antibacterial activity (disc / inhibition zone) against Shigella dysenteriae; conditions: read-out: Inhibition zone, S. dysenteriae
Staphylococcus aureus = assay: Antibacterial activity (disc / inhibition zone) against Staphylococcus aureus; conditions: for zone of inhibition at 25 µg/mL / zone of inhibition at 50 µg/mL: read-out: Inhibition zone, S. aureus
Pseudomonas aeruginosa = assay: Antibacterial activity (disc / inhibition zone) against Pseudomonas aeruginosa; conditions: for zone of inhibition at 25 µg/mL / zone of inhibition at 50 µg/mL: read-out: Inhibition zone, P. aeruginosa; for IC50: read-out: IC50 against Pseudomonas aeruginosa
[3] = 25 µg/mL, read-out: % Activity at 25 µg (NO scavenging)
[4] = 50 µg/mL, read-out: % Activity at 50 µg (NO scavenging)
[5] = 100 µg/mL, read-out: % Activity at 100 µg (NO scavenging)
[6] = human erythrocytes, 37 °C, 35 min

| Compound | IC50 (NO scavenging) [1] [µg/mL] | inhibition [1, 3] [%] | inhibition [1, 4] [%] | inhibition [1, 5] [%] | Haemolytic activity, in words [2] | Haemolytic activity, percentage of lysis (Average ± SD) [2, 6] [%] | melting point [°C] | zone of inhibition at 25 µg/mL (Escherichia coli) [mm] | zone of inhibition at 50 µg/mL (Escherichia coli) [mm] | zone of inhibition at 25 µg/mL (Salmonella typhi) [mm] | zone of inhibition at 50 µg/mL (Salmonella typhi) [mm] | zone of inhibition at 25 µg/mL (Bacillus subtilis) [mm] | zone of inhibition at 50 µg/mL (Bacillus subtilis) [mm] | zone of inhibition at 25 µg/mL (Shigella dysenteriae) [mm] | zone of inhibition at 50 µg/mL (Shigella dysenteriae) [mm] | zone of inhibition at 25 µg/mL (Staphylococcus aureus) [mm] | zone of inhibition at 50 µg/mL (Staphylococcus aureus) [mm] | zone of inhibition at 25 µg/mL (Pseudomonas aeruginosa) [mm] | zone of inhibition at 50 µg/mL (Pseudomonas aeruginosa) [mm] | also measured |
| --- | --- | --- | --- | --- | --- | --- | --- | --- | --- | --- | --- | --- | --- | --- | --- | --- | --- | --- | --- | --- |
| O=Cc1cc(-c2ccc(F)c(Cl)c2)cs1 [2i, 4-(3-Chloro-4-fluorophenyl)thiophene-2-carbaldehyde] | 46.1 (≈ 192 µM) | 12 ± 0.05 | 57 ± 0.0021 | 72 ± 0.009 | highest haemolytic action | 9.779 ± 0.095 | 108 to 110 | 16 ± 0.043 | 26 ± 0.023 | 33 ± 0.25 | 59.5 ± 0.25 | 36.5 ± 0.04 | 56 ± 0.5 | 43 ± 0.105 | 58 ± 0.16 | 27.8 ± 0.12 | 58 ± 0.16 | 42 ± 0.04 | 66 ± 0.01 |  |
| O=Cc1cc(-c2ccc(Cl)c(Cl)c2)cs1 [2h, 4-(3,4-Dichlorophenyl)thiophene-2-carbaldehyde] |  | 13 ± 0.002 | 20 ± 0.025 | 35 ± 0.077 |  | 3.487 ± 0.054 | 158 to 160 | 32 ± 0.03 | 60 ± 0.24 | 30 ± 0.13 | 57 ± 0.01 | 28 ± 0.03 | 58 ± 0.22 | 29 ± 0.19 | 59.4 ± 0.45 | 39.4 ± 0.05 | 59.4 ± 0.45 | 40 ± 0.041 | 67 ± 0.021 |  |
| O=C1O[C@H]([C@@H](O)CO)C(O)=C1O [Ascorbic Acid, ascorbic acid, reference compound] |  | 40 ± 0.038 | 61 ± 0.004 | 77 ± 0.001 |  |  |  |  |  |  |  |  |  |  |  |  |  |  |  |  |
| COc1ccc(-c2csc(C=O)c2)cc1 [2f, 4-(4-Methoxyphenyl)thiophene-2-carbaldehyde] |  | 5 ± 0.005 | 10 ± 0.028 | 25 ± 0.005 | highest haemolytic action | 6.083 ± 0.143 | 68 to 70 | 9 ± 0.03 | 8 ± 0.01 | 36 ± 0.01 | 63 ± 0.11 | 24.4 ± 0.03 | 54 ± 0.23 | 42 ± 0.7 | 61.4 ± 0.56 | 34 ± 0.05 | 61.4 ± 0.56 | 34 ± 0.04 | 64 ± 0.04 | IC50 (Salmonella typhi): 37.9 µg/mL (≈ 174 µM) |
| Cc1ccc(-c2csc(C=O)c2)cc1 [2e, 4-p-Tolylthiophene-2-carbaldehyde] |  | -15 ± 0.04 | -12 ± 0.037 | 3 ± 0.0014 | lowest haemolytic property | 3.356 ± 0.075 | 58 to 60 | 32 ± 0.05 | 62 ± 0.01 | 22.2 ± 0.14 | 53 ± 0.12 | 22.4 ± 0.13 | 54 ± 0.17 | 41 ± 0.05 | 58 ± 0.01 | 28 ± 0.2 | 58 ± 0.01 | 44 ± 0.02 | 60 ± 0.03 | IC50 (Escherichia coli): 40 µg/mL (≈ 198 µM) |
| [H]/N=C(/N)N[C@H]1[C@H](O)[C@@H](O)[C@H](O[C@@H]2O[C@@H](C)[C@](O)(C=O)[C@H]2O[C@@H]2O[C@@H](CO)[C@H](O)[C@@H](O)[C@@H]2NC)[C@@H](N/C(N)=N\[H])[C@@H]1O [Streptomycin, streptomycin, reference compound] |  |  |  |  |  |  |  | 29.3 ± 0.002 | 63 ± 0.002 | 33 ± 0.001 | 53 ± 0.001 | 34 ± 0.015 | 53 ± 0.001 | 48 ± 0.05 | 55 ± 0.034 | 15 ± 0.034 | 55 ± 0.03 | 41.5 ± 0.002 | 63 ± 0.002 | IC50 (Pseudomonas aeruginosa): 35.2 µg/mL (≈ 60.5 µM) |
| Cc1ccc(-c2csc(C=O)c2)s1 [2j, 5-Methyl-2,3-bisthiophene-5-carbaldehyde] | 49.3 (≈ 237 µM) | 15 ± 0.021 | 50 ± 0.024 | 65 ± 0.013 |  | 4.135 ± 0.095 | 218 to 220 | 26 ± 0.03 | 66 ± 0.43 | 29 ± 0.1 | 63 ± 0.1 | 27.1 ± 0.01 | 60 ± 0.05 | 35 ± 0.2 | 65 ± 0.09 | 35.2 ± 0.01 | 65 ± 0.09 | 36 ± 0.16 | 69 ± 0.16 | IC50 (Escherichia coli): 40 µg/mL (≈ 192 µM); IC50 (Salmonella typhi): 37.4 µg/mL (≈ 180 µM); IC50 (Staphylococcus aureus; read-out: IC50 against Staphylococcus aureus): 37.4 µg/mL (≈ 180 µM) |
| O=Cc1cc(-c2ccccc2)cs1 [2a, 4-Phenylthiophene-2-carbaldehyde] | 92.5 (≈ 491 µM) | 12 ± 0.037 | 33 ± 0.0035 | 48 ± 0.049 |  | 3.947 ± 0.078 | 57 to 59 |  | 47 ± 0.15 |  | 61 ± 0.13 |  | 61 ± 0.14 |  | 63 ± 0.18 |  | 63 ± 0.18 |  | 67.6 ± 0.001 |  |
| O=Cc1cc(-c2cc(C(F)(F)F)cc(C(F)(F)F)c2)cs1 [2b, 4-(3,5-Bis(trifloromethyl)phenyl)thiophene-2-carbaldehyde] | 66.6 (≈ 205 µM) | 10 ± 0.02 | 45 ± 0.001 | 60 ± 0.021 |  | 5.003 ± 0.078 | 95 to 97 | 18 ± 0.13 |  | 33 ± 0.2 | 63 ± 0.25 | 23 ± 0.09 | 59 ± 0.1 | 33 ± 0.05 | 62.4 ± 0.1 | 36.6 ± 0.4 | 62.4 ± 0.1 | 42 ± 0.02 | 67 ± 0.01 |  |
| N#Cc1cc(-c2csc(C=O)c2)cc(C(F)(F)F)c1 [2d, 3-(5-Formylthiophene-3-yl)-5-(trifloromethyl)benzonitrile] | 45.6 (≈ 162 µM) | 12 ± 0.025 | 58 ± 0.01 | 73 ± 0.0028 | lowest haemolytic property | 3.306 ± 0.058 | 252 to 254 | 32.5 ± 0.12 | 40.5 ± 0.19 | 30 ± 0.15 | 64 ± 0.05 | 28.3 ± 0.75 | 58 ± 0.35 | 35 ± 0.15 | 63 ± 0.31 | 33 ± 0.01 | 63 ± 0.31 | 46 ± 0.02 | 67 ± 0.01 | IC50 (Pseudomonas aeruginosa): 29.7 µg/mL (≈ 106 µM) |
| Triton X-100 [Triton-X 100, reference compound] |  |  |  |  |  |  |  |  |  |  |  |  |  |  |  |  |  |  |  | Haemolytic activity, percentage of lysis (Average ± SD) [2]: 99.824 ± 0.536% |
